Our source for the IC50 and melting point values is patent publication US20080119467A1, “Purine Derivatives, Compositions Containing Them and Use Thereof” (AVENTIS PHARMA S.A., priority 2005, published 2008).

Molecules are shown by their SMILES. Counter-ions that a name gives are not always drawn.

Sequence of Hsp82 (P02829 whole entry): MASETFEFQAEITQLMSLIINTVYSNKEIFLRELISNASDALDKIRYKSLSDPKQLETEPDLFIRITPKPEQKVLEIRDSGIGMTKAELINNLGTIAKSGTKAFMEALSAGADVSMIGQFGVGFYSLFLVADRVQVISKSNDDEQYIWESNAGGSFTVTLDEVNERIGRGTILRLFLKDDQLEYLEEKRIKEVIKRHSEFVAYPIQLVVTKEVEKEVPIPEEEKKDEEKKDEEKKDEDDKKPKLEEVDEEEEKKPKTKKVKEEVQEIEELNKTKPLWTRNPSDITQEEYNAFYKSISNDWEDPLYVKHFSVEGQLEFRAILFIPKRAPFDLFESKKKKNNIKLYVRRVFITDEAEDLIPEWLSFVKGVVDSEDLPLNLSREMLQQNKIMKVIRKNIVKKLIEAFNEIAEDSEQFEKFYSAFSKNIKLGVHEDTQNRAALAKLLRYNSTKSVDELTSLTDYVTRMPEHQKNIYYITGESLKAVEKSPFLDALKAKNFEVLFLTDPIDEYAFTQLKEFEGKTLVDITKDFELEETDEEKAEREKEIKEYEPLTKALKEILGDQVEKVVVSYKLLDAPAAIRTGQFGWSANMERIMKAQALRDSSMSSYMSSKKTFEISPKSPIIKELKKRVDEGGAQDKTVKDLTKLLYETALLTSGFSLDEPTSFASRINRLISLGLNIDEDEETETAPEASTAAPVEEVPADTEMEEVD

The first series concerns the target Hsp82 (Saccharomyces cerevisiae, UniProt P02829). Put plainly: Inhibition of the ATPase activity of Hsp82 in the enzymatic coupling system (pyruvate kinase / lactate dehydrogenase). In kind it is biochemical. The following applies: ATPase activity of Hsp82, PK/LDH enzymatic coupling system, 1 μM Hsp82, 250 μM ATP, 37° C., 340 nm. The text has this: The formation of ADP due to the ATPase activity of Hsp82 was utilized for developing another method for evaluating the enzymatic activity of this enzyme by the application of an enzymatic coupling system employing pyruvate kinase (PK) and lactate dehydrogenase (LDH). In this spectrophotometric method of the kinetic type, the PK catalyzes the formation of ATP and pyruvate from phosphenol-pyruvate (PEP) and of ADP produced by HSP82. The pyruvate formed, which is a substrate of LDH, is then converted to lactate in the presence of NADH. In this case, the decrease in the concentration of NADH, measured from the decrease in absorbance at a wavelength of 340 nm, is proportional to the concentration of ADP produced by HSP82. The test products are incubated in a reaction volume of 100 μl of compound buffer of 100 mM Hepes-NaOH (pH 7.5), 5 mM MgCl2, 1 mM DTT, 150 mM KCl, 0.3 mM NADH, 2.5 mM PEP and 250 μM ATP. This mixture is preincubated at 37° C. for 30 min before adding 3.77 units of LDH and 3.77 units of PK. The reaction is initiated by addition of the product to be evaluated, at variable concentrations, and of Hsp82, at a concentration of 1 μM. Then the enzymatic activity of Hsp82 is measured, continuously, in a microplate reader, at 37° C., at a wavelength of 340 nm. The initial rate of the reaction is obtained by measuring the slope of the tangent of the recorded curve to the origin. The enzymatic activity is expressed as μM of ADP formed per minute. The effect of the various products tested is expressed as percentage inhibition of the ATPase activity. The inhibitory activities on the ATPase activity of Hsp82 obtained with the products of the invention in the enzymatic coupling system are presented in the following table, according to the following criteria of inhibition of the ATPase activity of Hsp82: […]
As usually defined, the IC50 is the concentration that inhibits the measured activity by half. A lower IC50 goes with higher potency. The compound `COc1ccccc1N1CCN(c2nc(Cl)nc3[nH]cnc23)CC1` [Example 20, 2-Chloro-6-[4-(2-methoxy-phenyl)-piperazin-1-yl]-1H-purine monohydrochloride] came in with an IC50 of 10 to 100 µM.

`NC(=O)c1cccnc1N1CCN(c2nc(Cl)nc3[nH]cnc23)CC1` [Example 27, 2-[4-(2-Chloro-9H-purin-6-yl)-piperazin-1-yl]-nicotinamide] returned an IC50 of less than 1 µM.

For `Cl.Clc1nc(N2CCN(Cc3ccccc3)CC2)c2nc[nH]c2n1` [Example 1, 2-Chloro-6-[4-(phenylmethyl)-piperazin-1-yl]-1H-purine monohydrochloride], the IC50 is less than 1 µM.

Compound `Clc1nc(N2CCN(C(c3ccccc3)c3ccccc3)CC2)c2nc[nH]c2n1` [Example 6, 2-chloro-6-[4-(diphenylmethyl)-piperazin-1-yl]1H-purine] displayed an IC50 of 1 to 10 µM.

Turning to `Clc1nc(N2CCN(c3ncccn3)CC2)c2nc[nH]c2n1` [Example 19, 2-Chloro-6-[4-(pyrimidin-2-yl)-piperazin-1-yl]-1H-purine monohydrochloride], the IC50 was less than 1 µM.

Compound `Clc1nc(N2CCSCC2)c2nc[nH]c2n1` [Example 4, 2-chloro-6-(thiamorpholin-4-yl)-1H-purine] came in with an IC50 of 1 to 10 µM.

As for `Clc1nc(N2CCC(Nc3ccccc3)CC2)c2nc[nH]c2n1` [Example 16, 2-Chloro-6-[4-(phenylamino)-piperidin-1-yl]-1H-purine monohydrochloride], the IC50 was less than 1 µM.

Consider `FC(F)(F)c1ccccc1N1CCN(c2nc(Cl)nc3[nH]cnc23)CC1` [Example 22, 2-chloro-6-[4-(2-trifluoromethyl-phenyl)-piperazin-1-yl]1H-purine], for which the IC50 was in the range of 1 to 10 µM.

`NC(=O)c1cccc(N2CCN(c3nc(Cl)nc4[nH]cnc34)CC2)c1` [Example 12, 2-chloro-6-[4-(3-carboxamido-phenyl)-piperazin-1-yl]1H-purine] had an IC50 of 1 to 10 µM.

Compound `Clc1nc(N2CCCCC2)c2nc[nH]c2n1` [Example 5, 2-chloro-6-(piperidin-1-yl)-1H-purine] yielded an IC50 of less than 1 µM.

`O=C(c1ccccc1)N1CCN(c2nc(Cl)nc3[nH]cnc23)CC1` [Example 15, 2-chloro-6-[4-(phenyl)carbonyl-piperazin-1-yl]1H-purine] came in with an IC50 of 1 to 10 µM.

The compound `COc1ccc(CN2CCN(c3nc(Cl)nc4[nH]cnc34)CC2)cc1OC` [Example 10, 2-chloro-6-[4-(3,4-dimethoxy-phenyl)methyl-piperazin-1-yl]1H-purine] showed an IC50 of 10 to 100 µM.

For `Clc1nc(N2CCN(c3ccc4ccccc4n3)CC2)c2nc[nH]c2n1` [Example 21, 2-Chloro-6-[4-(quinolein-2-yl)-piperazin-1-yl]-1H-purine monohydrochloride], the IC50 is less than 1 µM.

For `Clc1nc(N2CCN(c3cccnc3)CC2)c2nc[nH]c2n1` [Example 11, 2-chloro-6-[4-(pyridin-3-yl)-piperazin-1-yl]1H-purine], the IC50 was in the range of 1 to 10 µM.

For the compound `Clc1nc(N2CCN(Cc3ccccc3)CC2)c2cc[nH]c2n1` [Example 28, 4-(4-Phenylmethyl-piperazin-1-yl)-2-chloro-7H-pyrrolo[2,3-d]pyrimidine], the IC50 lay within 1 to 10 µM.

For `Clc1nc(N2CCN(c3ccccc3)CC2)c2nc[nH]c2n1` [Example 9, 2-Chloro-6-(4-phenyl-piperazin-1-yl)-1H-purine monohydrochloride], the IC50 was in the range of 1 to 10 µM.

With `Cl.Clc1cc(N2CCN(c3ccccn3)CC2)c2nc[nH]c2n1` [Example 30, 5-Chloro-7-(4-pyridin-2-yl-piperazin-1-yl)-3H-imidazo[4,5-b]pyridine monohydrochloride], the IC50 was less than 1 µM.

For the compound `COc1cc(C(=O)N2CCN(c3nc(Cl)nc4[nH]cnc34)CC2)cc(OC)c1OC` [Example 14, 2-chloro-6-[4-(3,4,5-trimethoxy-phenyl)carbonyl-piperazin-1-yl]1H-purine], the IC50 fell in the range of 10 to 100 µM.

Compound `FC(F)(F)c1cccnc1N1CCN(c2nc(Cl)nc3[nH]cnc23)CC1` [Example 24, 2-Chloro-6-[4-(3-trifluoromethyl-pyridin-2-yl)-piperazin-1-yl]-9H-purine] came in with an IC50 of 1 to 10 µM.

Take `Clc1nc(N2CCOCC2)c2nc[nH]c2n1` [Example 3, 2-chloro-6-(morpholin-4-yl)-1H-purine]: the 50% inhibitory concentration (IC50) was in the range of 1 to 10 µM.

Compound `Clc1nc(N2CCN(c3ccccn3)CC2)c2nc[nH]c2n1` [Example 2, 2-chloro-6-[4-(pyridin-2-yl)-piperazin-1-yl]1H-purine] yielded an IC50 of less than 1 µM.

Consider `Clc1nc(N2CCN(c3ccccn3)CC2)c2cc[nH]c2n1` [Example 29, 2-Chloro-4-(4-pyridin-2-yl-piperazin-1-yl)-7H-pyrrolo[2,3-d]pyrimidine], for which the IC50 is less than 1 µM.

Regarding `NC(=O)c1ccccc1N1CCN(c2cc(Cl)nc3[nH]cnc23)CC1` [Example 31, 2-[4-(5-Chloro-3H-imidazo[4,5-b]pyridin-7-yl)-piperazin-1-yl]-benzamide], the IC50 is less than 1 µM.

`Clc1nc(NC2CCCC2)c2nc[nH]c2n1` [Example 7, 2-chloro-6-cyclopentylamino-1H-purine] yielded an IC50 of 10 to 100 µM.

In the case of `Cc1cccc(N2CCN(c3nc(Cl)nc4[nH]cnc34)CC2)n1` [Example 18, 2-Chloro-6-[4-(6-methyl-pyridin-2-yl)-piperazin-1-yl]-1H-purine monohydrochloride], the IC50 lay within 1 to 10 µM.

Compound `OCc1cc(F)ccc1N1CCN(c2nc(Cl)nc3[nH]cnc23)CC1` [Example 26, {2-[4-(2-Chloro-9H-purin-6-yl)-piperazin-1-yl]-5-fluoro-phenyl}-methanol] displayed an IC50 of less than 1 µM.

The compound `Clc1nc(N2CCC(Cc3ccccc3)CC2)c2nc[nH]c2n1` [Example 8, 2-Chloro-6-[4-(phenylmethyl)-piperidin-1-yl]-1H-purine monohydrochloride] returned an IC50 of less than 1 µM.

In turn, `Fc1nc(N2CCN(c3ccccn3)CC2)c2nc[nH]c2n1` [Example 23, 2-Fluoro-[4-(pyridin-2-yl)-piperazin-1-yl]1H-purine] came in with an IC50 of 1 to 10 µM.

The compound `Clc1cccc(N2CCN(c3nc(Cl)nc4[nH]cnc34)CC2)c1` [Example 13, 2-Chloro-6-[4-(3-chloro-phenyl)-piperazin-1-yl]1H-purine] returned an IC50 of 10 to 100 µM.

Test system in another series: not given
Assay: not given
Conditions: not given
As a reminder, the melting point is the temperature, or range, at which the solid turns liquid. `Cl.Clc1nc(N2CCN(Cc3ccccc3)CC2)c2nc[nH]c2n1` [Example 1, 2-Chloro-6-[4-(phenylmethyl)-piperazin-1-yl]-1H-purine monohydrochloride] returned a melting point of 264 to 266 °C.

The compound `Clc1nc(N2CCN(Cc3ccccc3)CC2)c2cc[nH]c2n1` [Example 28, 4-(4-Phenylmethyl-piperazin-1-yl)-2-chloro-7H-pyrrolo[2,3-d]pyrimidine] returned a melting point of 250 °C.

`Cl.Clc1cc(N2CCN(c3ccccn3)CC2)c2nc[nH]c2n1` [Example 30, 5-Chloro-7-(4-pyridin-2-yl-piperazin-1-yl)-3H-imidazo[4,5-b]pyridine monohydrochloride] gave a melting point greater than 260 °C.

In turn, `Fc1nc(N2CCN(c3ccccn3)CC2)c2nc[nH]c2n1` [Example 23, 2-Fluoro-[4-(pyridin-2-yl)-piperazin-1-yl]1H-purine] displayed a melting point greater than 260 °C.

As for `Clc1cccc(N2CCN(c3nc(Cl)nc4[nH]cnc34)CC2)c1` [Example 13, 2-Chloro-6-[4-(3-chloro-phenyl)-piperazin-1-yl]1H-purine], the melting point was greater than 260 °C.
